For eight compounds, MIC, Activity and hemolysis results are on record in ChEMBL document CHEMBL4184299, “Regioselective and efficient enzymatic synthesis of antimicrobial andrographolide derivatives” (Bioorg Med Chem Lett, 2018).

≈ marks a conversion by molar mass, not a printed value. Calls of active or inactive are those of the source. The rule behind the calls is not given here. Some results are limits rather than exact numbers.

One may read the MIC as the lowest concentration that inhibits growth of the organism. Low values mean inhibition by little substance, high ones a need for much substance.

The subject of data set [1] is Staphylococcus aureus. Kind of data set: Antimicrobial activity against Staphylococcus aureus. It is filed as functional.
The subject of data set [2] is Escherichia coli. As to the kind of experiment: Antimicrobial activity against Escherichia coli. It is filed as functional.
In data set [3] the test system is Escherichia coli. As to the kind of experiment: Disruption of membrane integrity in Escherichia coli assessed as protein leakage at MIC. It is filed as functional, organism-based.
Data set [4] has as its system Pseudomonas fluorescens. Kind of data set: Antimicrobial activity against Pseudomonas fluorescens. In kind it is functional.
Data set [5] concerns Micrococcus luteus. As to the kind of experiment: Antimicrobial activity against Micrococcus luteus. In kind it is functional.
In data set [6] the test system is Aspergillus fumigatus. Kind of data set: Antimicrobial activity against Aspergillus fumigatus. It is filed as functional.
A short description of data set [7]: Hemolytic activity in human RBC at 25 ug/ml relative to control. In kind it is ADME, cell-based, Erythrocyte. The settings on record: red blood cells (erythrocytes), read-out: Activity.
Data set [8] relates to Candida albicans. As to the kind of experiment: Antimicrobial activity against Candida albicans. It is filed as functional.
Data set [9] deals with Rhizopus arrhizus. As to the kind of experiment: Antimicrobial activity against Rhizopus oryzae. In kind it is functional.
For data set [10], the system named is Escherichia coli. As to the kind of experiment: Induction of membrane permeability in Escherichia coli at MIC by DAPI/FITC/propidium iodide staining-based fluorescent microscopic analysis. In kind it is functional, organism-based.
For data set [11], the system named is Escherichia coli. As to the kind of experiment: Induction of membrane disruption in Escherichia coli assessed as translucent membranes at MIC after 60 mins by SEM analysis. It is filed as functional, organism-based.
Data set [12] has as its system Escherichia coli. As to the kind of experiment: Induction of membrane disruption in Escherichia coli assessed as deflated membranes at MIC after 60 mins by SEM analysis. In kind it is functional, organism-based.
Data set [13] concerns Escherichia coli. As to the kind of experiment: Induction of membrane disruption in Escherichia coli assessed as blurred membranes at MIC after 60 mins by SEM analysis. In kind it is functional, organism-based.

Consider `C=C1CC[C@@H]2[C@](C)(CO)[C@H](O)CC[C@@]2(C)[C@@H]1C/C=C1/C(=O)OC[C@H]1OC(=O)CCCCCCCCCCC`, for which the MIC was 16 µg/mL (≈ 30 µM) in data set [1]; 64 µg/mL (≈ 120 µM) in data set [2]; above 128 µg/mL in data set [4]; 16 µg/mL (≈ 30 µM) in data set [5]; above 128 µg/mL in data set [6]; 32 µg/mL (≈ 60.1 µM) in data set [8]. In data set [9], this compound came in with an MIC above 128 µg/mL. The outcome in [3] was Active. The hemolysis at 25 ug/ml in [7] stood at 46%.

As for `C=C1CC[C@@H]2[C@](C)(CO)[C@H](O)CC[C@@]2(C)[C@@H]1C/C=C1/C(=O)OC[C@H]1O` [ANDROGRAPHOLIDE], the MIC in data set [1], in [2], in data set [4], in data set [5], in [6] and in data set [8] was above 128 µg/mL each time. The compound also gave an MIC in data set [9] above 128 µg/mL. Further, the hemolysis at 25 ug/ml in data set [7] is 8.5%.

Turning to `C=C1CC[C@@H]2[C@](C)(CO)[C@H](O)CC[C@@]2(C)[C@@H]1C/C=C1/C(=O)OC[C@H]1OC(=O)CCCCCCCCC`, the MIC is 16 µg/mL (≈ 31.7 µM) in data set [1]; 32 µg/mL (≈ 63.4 µM) in data set [2]; 64 µg/mL (≈ 127 µM) in data set [4]; 64 µg/mL (≈ 127 µM) in data set [5]; above 128 µg/mL in data set [6]; above 128 µg/mL in data set [8]. In addition, in [9], the MIC was above 128 µg/mL. The outcome in data set [3] was Active. In data set [7], the hemolysis at 25 ug/ml worked out at 35%.

Turning to `C=C1CC[C@@H]2[C@](C)(CO)[C@H](O)CC[C@@]2(C)[C@@H]1C/C=C1/C(=O)OC[C@H]1OC(=O)CCC`, the MIC in data set [1] was 8 µg/mL (≈ 19 µM); in data set [2] it was 4 µg/mL (≈ 9.51 µM); in data set [4] it was 16 µg/mL (≈ 38 µM); in [5], 32 µg/mL (≈ 76.1 µM); in [6], above 128 µg/mL; in [8], 64 µg/mL (≈ 152 µM). The same compound gave an MIC in data set [9] above 128 µg/mL. Moreover, the outcome in [3], in [10], in [11], in [12] and in data set [13] was Active. Moreover, the hemolysis at 25 ug/ml in data set [7] worked out at 7.1%.

As for `C=C1CC[C@@H]2[C@](C)(CO)[C@H](O)CC[C@@]2(C)[C@@H]1C/C=C1/C(=O)OC[C@H]1OC(C)=O`, the MIC in data set [1] was 16 µg/mL (≈ 40.8 µM); in data set [2], 64 µg/mL (≈ 163 µM); in [4], 4 µg/mL (≈ 10.2 µM); in [5] it was 32 µg/mL (≈ 81.5 µM); in data set [6] it was above 128 µg/mL; in data set [8], 32 µg/mL (≈ 81.5 µM). In addition, the MIC in data set [9] is above 128 µg/mL. Further, in data set [3], the result was Active. In data set [7], the hemolysis at 25 ug/ml amounted to 4.8%.

As for `CN[C@@H]1[C@@H](O)[C@@H](O[C@@H]2[C@@H](O)[C@H](O[C@H]3O[C@H](CN)CC[C@H]3N)[C@@H](N)C[C@H]2N)OC[C@]1(C)O.O=S(=O)(O)O`, the MIC in data set [1] and in data set [4] was 0.5 µg/mL each time.

Regarding `C[C@@H]1[C@H](O)[C@@H](C)/C=C/C=C/C=C/C=C/C=C/C=C/C=C/[C@H](O[C@@H]2O[C@H](C)[C@@H](O)[C@H](N)[C@@H]2O)C[C@@H]2O[C@](O)(C[C@@H](O)C[C@@H](O)[C@H](O)CC[C@@H](O)C[C@@H](O)CC(=O)O[C@H]1C)C[C@H](O)[C@H]2C(=O)O` [AMPHOTERICIN B], the results for the MIC in data set [6] and in data set [9] were 0.5 µg/mL (≈ 0.541 µM) and 1 µg/mL (≈ 1.08 µM), respectively.

As to `C=C1CC[C@@H]2[C@](C)(CO)[C@H](O)CC[C@@]2(C)[C@@H]1C/C=C1/C(=O)OC[C@H]1OC(=O)CC`, the MIC in data set [1] was 4 µg/mL (≈ 9.84 µM); in [2], 8 µg/mL (≈ 19.7 µM); in [4] it was 32 µg/mL (≈ 78.7 µM); in data set [5], 16 µg/mL (≈ 39.4 µM); in [6], above 128 µg/mL; in data set [8] it was 16 µg/mL (≈ 39.4 µM). This compound also registered an MIC in data set [9] above 128 µg/mL. In addition, the outcome in data set [10], in [11], in data set [12] and in data set [13] was Active. Besides, in data set [7], the hemolysis at 25 ug/ml amounted to 6.4%.
